From PubChem BioAssay (NCI)
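Tested at 5 concentrations; 48 h exposure; 96-well plates; endpoints linearly interpolated, else capped at highest concentration. Abbreviation: GI50, concentration required for 50% inhibition of growth. TGI marks complete inhibition of growth.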

How the values were obtained:
Assay in all cases: NCI-60 cell line screen, 48 h
[1] = tested on: 786-0 renal
[2] = tested on: A498 renal
[3] = tested on: A549 NSCLC
[4] = tested on: ACHN renal
[5] = tested on: BT-549 breast
[6] = tested on: CAKI-1 renal
[7] = tested on: CCRF-CEM leukemia
[8] = tested on: COLO 205 colon
[9] = tested on: DU-145 prostate
[10] = tested on: HCC-2998 colon
[11] = tested on: HCT-116 colon
[12] = tested on: HCT-15 colon
[13] = tested on: HL-60(TB) leukemia
[14] = tested on: HOP-62 NSCLC
[15] = tested on: HOP-92 NSCLC
[16] = tested on: HT29 colon
[17] = tested on: IGROV1 ovarian
[18] = tested on: K-562 leukemia
[19] = tested on: KM12 colon
[20] = tested on: LOX IMVI melanoma
[21] = tested on: M14 melanoma
[22] = tested on: MALME-3M melanoma
[23] = tested on: MCF7 breast
[24] = tested on: MDA-MB-231 breast
[25] = tested on: MOLT-4 leukemia
[26] = tested on: NCI-H226 lung
[27] = tested on: NCI-H23 lung
[28] = tested on: NCI-H460 lung
[29] = tested on: NCI-H522 lung
[30] = tested on: NCI/ADR-RES ovarian
[31] = tested on: OVCAR-3 ovarian
[32] = tested on: OVCAR-4 ovarian
[33] = tested on: OVCAR-5 ovarian
[34] = tested on: OVCAR-8 ovarian
[35] = tested on: PC-3 prostate
[36] = tested on: RPMI-8226 leukemia
[37] = tested on: RXF 393 renal
[38] = tested on: SF-268 CNS
[39] = tested on: SF-295 CNS
[40] = tested on: SF-539 CNS
[41] = tested on: SK-MEL-2 melanoma
[42] = tested on: SK-MEL-28 melanoma
[43] = tested on: SK-MEL-5 melanoma
[44] = tested on: SK-OV-3 ovarian
[45] = tested on: SN12C renal
[46] = tested on: SNB-19 CNS
[47] = tested on: SNB-75 CNS
[48] = tested on: SR leukemia
[49] = tested on: SW-620 colon
[50] = tested on: T-47D breast
[51] = tested on: U251 CNS
[52] = tested on: UACC-257 melanoma
[53] = tested on: UACC-62 melanoma
[54] = tested on: UO-31 renal

O=C1Nc2ccc(Br)cc2C12CC(c1ccccc1)=NN2 (stereo not drawn)
GI50 [1]: 5.66 µM
TGI [1]: 48.5 µM
GI50 [2]: 2.24 µM
TGI [2]: 8.38 µM
GI50 [3]: 4.53 µM
TGI [3]: > 100 µM
GI50 [4]: 7.96 µM
TGI [4]: > 100 µM
GI50 [5]: 13 µM
TGI [5]: 74.3 µM
GI50 [6]: 2.8 µM
TGI [6]: 16.6 µM
GI50 [7]: 3.67 µM
TGI [7]: 37.7 µM
GI50 [8]: 3.79 µM
TGI [8]: 15.2 µM
GI50 [9]: 3.35 µM
TGI [9]: 16.4 µM
GI50 [10]: 15.9 µM
TGI [10]: 65.1 µM
GI50 [11]: 4.27 µM
TGI [11]: 17 µM
GI50 [12]: 3.56 µM
TGI [12]: 48.8 µM
GI50 [13]: 2.77 µM
TGI [13]: 8.47 µM
GI50 [14]: 6.17 µM
TGI [14]: > 100 µM
GI50 [15]: 1.66 µM
TGI [15]: 26.2 µM
GI50 [16]: 4.08 µM
TGI [16]: 13 µM
GI50 [17]: 3.51 µM
TGI [17]: 29.3 µM
GI50 [18]: 2.84 µM
TGI [18]: 31 µM
GI50 [19]: 3.86 µM
TGI [19]: 38.8 µM
GI50 [20]: 7.21 µM
TGI [20]: 22.9 µM
GI50 [21]: 3.25 µM
TGI [21]: > 100 µM
GI50 [22]: 2.04 µM
TGI [22]: 6.93 µM
GI50 [23]: 2.48 µM
TGI [23]: 64.5 µM
GI50 [24]: 6.19 µM
TGI [24]: 29.5 µM
GI50 [25]: 5.04 µM
TGI [25]: 30.5 µM
GI50 [26]: 6.93 µM
TGI [26]: > 100 µM
GI50 [27]: 5.43 µM
TGI [27]: 77.2 µM
GI50 [28]: 3.76 µM
TGI [28]: 19.4 µM
GI50 [29]: 3.56 µM
TGI [29]: 9.43 µM
GI50 [30]: 3.89 µM
TGI [30]: 35.8 µM
GI50 [31]: 3.26 µM
TGI [31]: 13.9 µM
GI50 [32]: 5.31 µM
TGI [32]: 77.6 µM
GI50 [33]: 16.7 µM
TGI [33]: > 100 µM
GI50 [34]: 5.7 µM
TGI [34]: 39.2 µM
GI50 [35]: 2.28 µM
TGI [35]: 18.4 µM
GI50 [36]: 3.07 µM
TGI [36]: 12.2 µM
GI50 [37]: 2.14 µM
TGI [37]: 6.05 µM
GI50 [38]: 9.25 µM
TGI [38]: > 100 µM
GI50 [39]: 2.77 µM
TGI [39]: 9.5 µM
GI50 [40]: 2.1 µM
TGI [40]: 6.02 µM
GI50 [41]: 4.48 µM
TGI [41]: 25.6 µM
GI50 [42]: 7.48 µM
TGI [42]: > 100 µM
GI50 [43]: 3.2 µM
TGI [43]: 14.1 µM
GI50 [44]: 4.44 µM
TGI [44]: 87.3 µM
GI50 [45]: 6.8 µM
TGI [45]: 51.2 µM
GI50 [46]: 9.25 µM
TGI [46]: > 100 µM
GI50 [47]: 1.35 µM
TGI [47]: 6.91 µM
GI50 [48]: 2.88 µM
TGI [48]: 19.5 µM
GI50 [49]: 3.87 µM
TGI [49]: 23.8 µM
GI50 [50]: 5.48 µM
TGI [50]: > 100 µM
GI50 [51]: 3.84 µM
TGI [51]: 19.2 µM
GI50 [52]: 5.98 µM
TGI [52]: > 100 µM
GI50 [53]: 5.38 µM
TGI [53]: 27.1 µM
GI50 [54]: 4.46 µM
TGI [54]: > 100 µM
